Laboratory results taken from ChEMBL document CHEMBL4028801, “A multifactorial approach to hepatobiliary transporter assessment enables improved therapeutic compound development” (Toxicol Sci, 2013).

Experiments:
Bile salt export pump = Bile salt export pump (Homo sapiens, UniProt O95342); assay: Inhibition of human BSEP overexpressed in Sf9 cell membrane vesicles assessed as uptake of [3H]-taurocholate in presence of ATP measured after 15 to 20 mins by membrane vesicle transport assay; format: ADME, cell-based
Sequence of Bile salt export pump (O95342 whole entry): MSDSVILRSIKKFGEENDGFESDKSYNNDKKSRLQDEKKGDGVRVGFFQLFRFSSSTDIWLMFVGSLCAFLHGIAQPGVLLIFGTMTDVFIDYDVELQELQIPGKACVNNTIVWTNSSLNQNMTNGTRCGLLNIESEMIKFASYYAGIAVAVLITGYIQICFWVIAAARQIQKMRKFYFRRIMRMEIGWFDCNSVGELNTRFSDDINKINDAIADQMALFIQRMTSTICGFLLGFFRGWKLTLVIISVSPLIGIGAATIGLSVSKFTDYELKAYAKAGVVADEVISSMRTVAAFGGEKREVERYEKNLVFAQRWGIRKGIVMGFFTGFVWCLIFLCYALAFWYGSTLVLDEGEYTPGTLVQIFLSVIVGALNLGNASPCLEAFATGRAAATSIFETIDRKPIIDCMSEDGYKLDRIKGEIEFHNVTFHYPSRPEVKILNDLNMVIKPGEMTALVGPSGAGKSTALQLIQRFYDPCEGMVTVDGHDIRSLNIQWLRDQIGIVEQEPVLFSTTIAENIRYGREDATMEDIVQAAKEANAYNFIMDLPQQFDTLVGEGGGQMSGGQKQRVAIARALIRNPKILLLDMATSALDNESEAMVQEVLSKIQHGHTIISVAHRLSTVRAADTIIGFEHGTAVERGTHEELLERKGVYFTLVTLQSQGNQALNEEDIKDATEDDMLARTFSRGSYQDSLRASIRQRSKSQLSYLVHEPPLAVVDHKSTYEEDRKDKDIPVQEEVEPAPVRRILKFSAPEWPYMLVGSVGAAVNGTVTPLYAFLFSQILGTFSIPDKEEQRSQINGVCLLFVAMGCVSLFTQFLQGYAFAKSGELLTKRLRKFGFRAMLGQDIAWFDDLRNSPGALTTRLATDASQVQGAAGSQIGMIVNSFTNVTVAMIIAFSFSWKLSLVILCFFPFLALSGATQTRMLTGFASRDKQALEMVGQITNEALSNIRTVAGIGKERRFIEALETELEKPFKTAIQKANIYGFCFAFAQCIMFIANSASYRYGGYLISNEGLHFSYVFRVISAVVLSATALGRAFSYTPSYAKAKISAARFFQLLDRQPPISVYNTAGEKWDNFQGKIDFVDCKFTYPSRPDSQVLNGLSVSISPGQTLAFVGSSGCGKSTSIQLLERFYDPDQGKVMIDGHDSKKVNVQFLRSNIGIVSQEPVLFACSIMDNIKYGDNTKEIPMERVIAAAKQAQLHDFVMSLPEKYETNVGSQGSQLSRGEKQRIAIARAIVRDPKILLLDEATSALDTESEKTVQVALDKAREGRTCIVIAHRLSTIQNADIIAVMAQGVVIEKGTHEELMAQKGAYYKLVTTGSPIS

[1] = Ratio of drug concentration at steady state in human at 20 to 60 mg, po QD after 24 hrs to IC50 for human BSEP overexpressed in Sf9 insect cells; format: ADME, organism-based; details: in vivo
[2] = target: ATP-binding cassette sub-family C member 3 (Homo sapiens, UniProt O15438); assay: Inhibition of human MRP3 overexpressed in Sf9 insect cell membrane vesicles assessed as uptake of [3H]-estradiol-17beta-D-glucuronide in presence of ATP and GSH measured after 10 mins by membrane vesicle transport assay; format: ADME, cell-based
Sequence of ATP-binding cassette sub-family C member 3 (O15438 whole entry): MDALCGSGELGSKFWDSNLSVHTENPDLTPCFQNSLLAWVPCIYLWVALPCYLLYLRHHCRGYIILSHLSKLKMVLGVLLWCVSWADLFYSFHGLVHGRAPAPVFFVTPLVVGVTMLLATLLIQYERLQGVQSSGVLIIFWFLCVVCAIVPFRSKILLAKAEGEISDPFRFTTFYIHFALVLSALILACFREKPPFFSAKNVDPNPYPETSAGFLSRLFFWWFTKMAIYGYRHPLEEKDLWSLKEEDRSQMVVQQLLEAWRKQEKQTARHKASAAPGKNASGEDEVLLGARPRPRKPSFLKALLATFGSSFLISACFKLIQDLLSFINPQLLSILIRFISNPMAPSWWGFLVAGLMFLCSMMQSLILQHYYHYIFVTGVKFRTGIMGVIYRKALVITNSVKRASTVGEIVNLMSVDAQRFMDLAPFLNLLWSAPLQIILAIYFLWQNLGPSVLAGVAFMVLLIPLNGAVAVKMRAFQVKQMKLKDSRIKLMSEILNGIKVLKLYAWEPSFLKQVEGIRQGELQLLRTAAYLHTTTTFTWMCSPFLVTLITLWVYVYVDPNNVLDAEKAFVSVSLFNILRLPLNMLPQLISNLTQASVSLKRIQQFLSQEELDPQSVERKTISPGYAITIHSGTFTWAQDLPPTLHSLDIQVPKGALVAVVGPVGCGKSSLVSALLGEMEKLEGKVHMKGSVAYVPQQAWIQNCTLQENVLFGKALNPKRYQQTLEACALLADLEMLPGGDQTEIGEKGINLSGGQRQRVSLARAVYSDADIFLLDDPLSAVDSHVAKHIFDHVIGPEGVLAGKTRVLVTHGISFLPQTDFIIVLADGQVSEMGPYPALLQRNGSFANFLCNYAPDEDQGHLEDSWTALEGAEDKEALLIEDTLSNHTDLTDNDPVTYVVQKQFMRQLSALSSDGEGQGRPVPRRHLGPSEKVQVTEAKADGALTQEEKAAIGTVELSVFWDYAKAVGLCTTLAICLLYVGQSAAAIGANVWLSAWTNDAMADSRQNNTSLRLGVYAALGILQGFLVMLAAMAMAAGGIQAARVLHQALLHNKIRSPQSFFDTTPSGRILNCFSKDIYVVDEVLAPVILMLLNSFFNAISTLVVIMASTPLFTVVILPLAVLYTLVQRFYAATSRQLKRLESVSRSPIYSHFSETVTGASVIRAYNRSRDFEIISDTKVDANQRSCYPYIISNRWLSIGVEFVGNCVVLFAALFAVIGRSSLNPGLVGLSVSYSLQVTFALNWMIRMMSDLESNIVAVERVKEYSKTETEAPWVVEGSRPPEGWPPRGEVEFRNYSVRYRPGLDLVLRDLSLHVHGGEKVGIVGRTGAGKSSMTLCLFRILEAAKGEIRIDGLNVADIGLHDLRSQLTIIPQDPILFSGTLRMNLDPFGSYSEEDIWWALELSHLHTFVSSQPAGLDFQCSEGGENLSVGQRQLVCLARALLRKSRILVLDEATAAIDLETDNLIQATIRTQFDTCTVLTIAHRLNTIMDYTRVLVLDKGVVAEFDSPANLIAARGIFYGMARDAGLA

[3] = target: ATP-binding cassette sub-family C member 2 (Homo sapiens, UniProt Q92887); assay: Inhibition of human MRP2 overexpressed in Sf9 cell membrane vesicles assessed as uptake of [3H]-estradiol-17beta-D-glucuronide in presence of ATP and GSH measured after 20 mins by membrane vesicle transport assay
Sequence of ATP-binding cassette sub-family C member 2 (Q92887 whole entry): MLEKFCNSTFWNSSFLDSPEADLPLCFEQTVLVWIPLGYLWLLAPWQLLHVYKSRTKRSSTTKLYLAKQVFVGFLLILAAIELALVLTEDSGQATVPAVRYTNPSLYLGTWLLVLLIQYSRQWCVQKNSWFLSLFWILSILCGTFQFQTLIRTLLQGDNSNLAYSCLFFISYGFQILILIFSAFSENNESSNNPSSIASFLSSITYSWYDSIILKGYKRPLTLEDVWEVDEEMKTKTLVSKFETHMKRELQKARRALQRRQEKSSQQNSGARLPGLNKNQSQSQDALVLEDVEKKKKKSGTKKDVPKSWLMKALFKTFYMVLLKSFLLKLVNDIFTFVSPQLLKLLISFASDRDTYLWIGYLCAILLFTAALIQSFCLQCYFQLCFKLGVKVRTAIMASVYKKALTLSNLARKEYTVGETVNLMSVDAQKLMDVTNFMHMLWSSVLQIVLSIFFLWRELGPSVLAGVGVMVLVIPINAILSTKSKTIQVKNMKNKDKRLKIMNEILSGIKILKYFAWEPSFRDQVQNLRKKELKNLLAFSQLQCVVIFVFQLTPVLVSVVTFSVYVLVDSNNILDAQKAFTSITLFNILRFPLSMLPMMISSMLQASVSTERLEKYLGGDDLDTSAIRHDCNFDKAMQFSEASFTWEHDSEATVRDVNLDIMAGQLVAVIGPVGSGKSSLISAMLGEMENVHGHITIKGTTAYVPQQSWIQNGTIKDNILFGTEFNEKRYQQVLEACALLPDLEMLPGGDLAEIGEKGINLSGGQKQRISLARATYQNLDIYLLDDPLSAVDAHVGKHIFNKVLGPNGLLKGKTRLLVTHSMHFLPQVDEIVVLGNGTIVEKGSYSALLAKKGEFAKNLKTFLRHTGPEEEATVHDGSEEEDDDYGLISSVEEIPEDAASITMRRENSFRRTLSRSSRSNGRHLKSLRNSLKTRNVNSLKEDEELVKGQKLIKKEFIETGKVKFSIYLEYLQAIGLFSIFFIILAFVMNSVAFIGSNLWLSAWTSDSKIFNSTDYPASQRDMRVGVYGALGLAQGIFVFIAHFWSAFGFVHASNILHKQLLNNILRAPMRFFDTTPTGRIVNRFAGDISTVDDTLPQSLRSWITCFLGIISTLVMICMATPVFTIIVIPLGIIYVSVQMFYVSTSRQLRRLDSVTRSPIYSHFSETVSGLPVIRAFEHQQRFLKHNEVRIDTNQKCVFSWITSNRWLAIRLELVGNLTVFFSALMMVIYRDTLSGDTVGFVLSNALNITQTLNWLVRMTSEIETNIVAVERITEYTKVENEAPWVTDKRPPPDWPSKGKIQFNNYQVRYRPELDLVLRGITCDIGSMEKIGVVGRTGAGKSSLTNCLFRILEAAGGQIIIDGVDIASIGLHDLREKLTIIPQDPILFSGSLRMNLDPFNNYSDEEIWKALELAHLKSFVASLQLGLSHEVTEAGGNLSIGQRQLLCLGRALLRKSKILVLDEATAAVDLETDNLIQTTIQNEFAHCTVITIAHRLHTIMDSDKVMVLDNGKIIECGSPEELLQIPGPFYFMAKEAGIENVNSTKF

[4] = AUC in human at 20 to 60 mg, po QD after 24 hrs; format: ADME, organism-based; details: in vivo
[5] = Drug concentration at steady state in human at 20 to 60 mg, po QD after 24 hrs; format: ADME, organism-based; details: in vivo, read-out: Css
[6] = Ratio of drug concentration at steady state in human at 20 to 60 mg, po QD after 24 hrs to IC50 for human MRP4 overexpressed in Sf9 insect cells; format: ADME, organism-based; details: in vivo
[7] = target: T1, ATP-binding cassette sub-family C member 4 (Homo sapiens, UniProt O15439); assay: Inhibition of human MRP4 overexpressed in Sf9 cell membrane vesicles assessed as uptake of [3H]-estradiol-17beta-D-glucuronide in presence of ATP and GSH measured after 20 mins by membrane vesicle transport assay; format: ADME, cell-based
T1 sequence (O15439 whole entry): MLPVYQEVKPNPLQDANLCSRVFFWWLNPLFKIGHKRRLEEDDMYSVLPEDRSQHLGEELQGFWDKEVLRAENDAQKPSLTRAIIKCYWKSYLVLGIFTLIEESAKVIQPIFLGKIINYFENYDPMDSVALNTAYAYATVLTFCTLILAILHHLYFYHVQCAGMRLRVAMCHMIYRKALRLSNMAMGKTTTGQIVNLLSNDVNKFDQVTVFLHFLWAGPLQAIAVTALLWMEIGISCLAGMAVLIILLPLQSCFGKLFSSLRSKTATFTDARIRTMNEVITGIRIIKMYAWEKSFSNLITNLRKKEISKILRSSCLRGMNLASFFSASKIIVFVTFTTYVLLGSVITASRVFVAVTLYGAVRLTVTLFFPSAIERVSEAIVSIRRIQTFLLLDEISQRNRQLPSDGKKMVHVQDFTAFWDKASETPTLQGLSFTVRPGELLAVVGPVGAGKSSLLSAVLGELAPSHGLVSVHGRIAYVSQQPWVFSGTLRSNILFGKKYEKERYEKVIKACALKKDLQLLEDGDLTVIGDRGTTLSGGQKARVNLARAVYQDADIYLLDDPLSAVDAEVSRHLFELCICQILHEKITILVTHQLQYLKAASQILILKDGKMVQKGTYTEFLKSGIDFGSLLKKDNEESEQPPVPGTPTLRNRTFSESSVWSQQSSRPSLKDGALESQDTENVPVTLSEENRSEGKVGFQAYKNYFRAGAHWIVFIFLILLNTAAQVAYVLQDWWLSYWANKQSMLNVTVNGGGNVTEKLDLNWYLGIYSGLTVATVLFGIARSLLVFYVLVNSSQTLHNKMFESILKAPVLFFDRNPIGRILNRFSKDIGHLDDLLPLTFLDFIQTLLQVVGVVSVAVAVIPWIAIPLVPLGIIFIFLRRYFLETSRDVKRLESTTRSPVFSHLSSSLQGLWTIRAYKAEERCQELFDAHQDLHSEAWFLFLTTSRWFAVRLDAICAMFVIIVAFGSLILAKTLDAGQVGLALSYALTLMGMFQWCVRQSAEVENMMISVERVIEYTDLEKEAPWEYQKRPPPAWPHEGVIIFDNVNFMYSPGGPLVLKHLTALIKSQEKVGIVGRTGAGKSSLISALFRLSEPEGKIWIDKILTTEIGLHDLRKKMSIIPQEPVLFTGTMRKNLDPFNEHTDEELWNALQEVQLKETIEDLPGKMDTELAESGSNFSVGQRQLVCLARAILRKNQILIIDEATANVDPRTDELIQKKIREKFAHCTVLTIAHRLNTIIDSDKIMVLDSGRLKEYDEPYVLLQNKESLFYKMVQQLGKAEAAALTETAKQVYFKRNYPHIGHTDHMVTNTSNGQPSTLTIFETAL

[8] = AUC in human at 6 to 12 mg, po BID after 12 hrs; format: ADME, organism-based; details: in vivo
[9] = Ratio of drug concentration at steady state in human at 6 to 12 mg, po BID after 12 hrs to IC50 for human BSEP overexpressed in Sf9 insect cells; format: ADME, organism-based; details: in vivo
[10] = Drug concentration at steady state in human at 6 to 12 mg, po BID after 12 hrs; format: ADME, organism-based; details: in vivo, read-out: Css
[11] = AUC in human at 1% applied topically BID after 12 hrs; format: ADME; set-up: time < 12 hr; details: topical or ocular
[12] = Ratio of drug concentration at steady state at 1% applied topically BID after 12 hrs to IC50 for human BSEP overexpressed in Sf9 insect cells; format: ADME; details: topical_or_ocular
[13] = Drug concentration in human at steady state at 1% applied topically BID after 12 hrs; format: ADME; details: topical or ocular, read-out: Css
[14] = Drug concentration at steady state in human at 1.5 ug administered as 1 drop intraocularly QD after 24 hrs; format: ADME; details: in vivo, topical or ocular, read-out: Css
[15] = AUC in human at 1.5 ug administered as 1 drop intraocularly QD after 24 hrs; format: ADME; set-up: dose 1.5 ug, time < 24 hr, route intraocular; details: in vivo, topical or ocular
[16] = Ratio of drug concentration at steady state in human at 1.5 ug administered as 1 drop intraocularly QD after 24 hrs to IC50 for human BSEP overexpressed in Sf9 insect cells; format: ADME; details: in vivo, topical_or_ocular
clinical [17] = details: human, in vivo, po
Description: Drug concentration at steady state in human at 10 to 80 mg, po QD after 24 hrs

[18] = AUC in human at 10 to 80 mg, po QD after 24 hrs; format: ADME, organism-based; details: in vivo
[19] = Drug concentration at steady state in human at 2.5 to 20 mg, po QD after 24 hrs; format: ADME, organism-based; details: in vivo, read-out: Css
[20] = AUC in human at 2.5 to 20 mg, po QD after 24 hrs; format: ADME, organism-based; details: in vivo
[21] = Ratio of drug concentration at steady state in human at 2.5 to 20 mg, po QD after 24 hrs to IC50 for human BSEP overexpressed in Sf9 insect cells; format: ADME, organism-based; details: in vivo
[22] = Drug concentration at steady state in human at 10 mg, po QD after 24 hrs; details: in vivo
clinical [23] = details: human, in vivo, po, 10 mg

| IC50 [2] [µM] | IC50 [3] [µM] | IC50 [7] [µM] | SMILES | IC50 (Bile salt export pump) [µM] | further results |
| --- | --- | --- | --- | --- | --- |
| > 133 | > 133 | 16.5 | COC(=O)C1=C(C)NC(C)=C(C(=O)OCC(C)C)C1c1ccccc1[N+](=O)[O-] (stereo not drawn) [NISOLDIPINE] | 33 | Ratio [1]: 0.00017; AUC at 24 h [4]: 0.134 µM·h; concentration at 24 h [5]: 6 nM; Ratio [6]: 0 |
| > 133 | > 133 | > 133 | CC[C@@H]1/C=C(\C)C[C@H](C)C[C@H](OC)[C@H]2O[C@@](O)(C(=O)C(=O)N3CCCC[C@H]3C(=O)O[C@H](/C(C)=C/[C@@H]3CC[C@H](Cl)[C@H](OC)C3)[C@H](C)[C@@H](O)CC1=O)[C@H](C)C[C@@H]2OC [PIMECROLIMUS] | 10 | AUC at 12 h [11]: 0.023 µM·h; Ratio [12]: 0.00019; concentration at 12 h [13]: 2 nM |
| > 133 | > 133 | > 133 | CC[C@H](C)C(=O)O[C@H]1C[C@@H](C)C=C2C=C[C@H](C)[C@H](CC[C@@H]3C[C@@H](O)CC(=O)O3)[C@H]21 [LOVASTATIN] | 19.3 | concentration at 24 h (clinical [17]): 10 nM; AUC at 24 h [18]: 0.238 µM·h |

More lines, now with the values behind:

| SMILES | IC50 [2] [µM] | IC50 [3] [µM] | IC50 [7] [µM] | IC50 (Bile salt export pump) [µM] | further results |
| --- | --- | --- | --- | --- | --- |
| COc1cc(C(C)=O)ccc1OCCCN1CCC(c2noc3cc(F)ccc23)CC1 [ILOPERIDONE] | > 133 | > 133 | > 133 | 23.4 | AUC at 12 h [8]: 0.106 µM·h; Ratio [9]: 0.00038; concentration at 12 h [10]: 9 nM |
| CC(C)OC(=O)CCC/C=C\C[C@@H]1[C@@H](CC[C@@H](O)CCc2ccccc2)[C@H](O)C[C@@H]1O [LATANOPROST] | > 133 | > 133 | > 133 | 12.9 | concentration at 24 h [14]: 2 nM; AUC at 24 h [15]: 0.047 µM·h; Ratio [16]: 0.00015 |
| COC(=O)C1=C(C)NC(C)=C(C(=O)OC(C)C)C1c1cccc2nonc12 (stereo not drawn) [ISRADIPINE] | > 133 | > 133 | > 133 | 28 | concentration at 24 h [19]: 8 nM; AUC at 24 h [20]: 0.197 µM·h; Ratio [21]: 0.0003 |
| CCOC(=O)N1CCC(=C2c3ccc(Cl)cc3CCc3cccnc32)CC1 [LORATADINE] | > 133 | > 133 | > 133 | 12 | concentration at 24 h [22]: 1 nM; AUC at 24 h (clinical [23]): 0.029 µM·h |
